Test results as given in EP0584256B1, “COMPOUNDS AND PHARMACEUTICAL COMPOSITIONS FOR DETECTING AND LOCALIZING TISSUES HAVING NEUROKININE 1 RECEPTORS” (MALLINCKRODT MEDICAL, INC., priority 1991, dated 1999).

Legend:
[1] = system: SP-receptors; experiment: Displacement of / binding of [125I]BH-SP, human glioma membranes; details: Figure 1
Description: (§1) Binding studies in vitro are carried out in a standardized system by studying the displacement of ^125I-Bolton Hunter substance P {[^125I]BH-SP} by the above-synthetized labelled peptides.

[2] = system: SP-receptors; experiment: Displacement of / binding of [125I]BH-SP, rat brain cortex membranes; details: membranes of the cortex of rat brains; Figure 1
Description: as §1

[3] = format: in vitro ADME, rat
Description: A liver perfusion model is used as described by Docter et al. in Endocrinology 1990, 126, 451-459. It is a generally accepted fact in this art, that handling of bio-active substances by the isolated perfused rat liver according to this model has a very good predictable value for the appearance of metabolites of the used substance in the circulation of human beings. In short, in this model isolated livers are perfused in a recirculating system with Krebs-Ringer medium supplemented with 1% bovine serum albumin and 10 mM glucose. After 0.5 hr preperfusion, experiments are started by addition of the labelled substance P (5 µCi) to the medium. At regular time points medium samples are taken. Medium samples are analyzed by column chromatography, using Seppak^(R) C-18 columns.
The average results are presented in Figures 4-6, showing the disappearance of the total radioactivity ("tot. act.") and of the peptide-bound radioactivity ("protein") with concomitant appearance of non-peptide bound radioactivity in the circulating medium as a degradation product.
Figures 7-9 show the excretion of the tested labelled peptides into the bile.

[4] = system: human meningioma membranes; experiment: Binding of [125I]BH-SP to human meningioma membranes; details: Figure 1
Description: as §1

Substance: [^125I]BH-SP: ^125I-Bolton Hunter substance P, known radioligand from in vitro binding studies
- specific binding to membranes [1]: specifically binds
- specific binding to membranes [2]: specifically binds
- liver metabolic clearance [3]: relatively fast
- specific binding to membranes [4]: not
